Measured values taken from patent US11780823B2, “Indazole-3-carboxamides and their use as Wnt/β-catenin signaling pathway inhibitors” (BioSplice Therapeutics, Inc., priority 2011, dated 2023).

System: Wnt activity (wnt-responsive SP5 promoter luciferase reporter in SW480 cells)
Assay: Wnt reporter screening assay: SP5 promoter-driven firefly luciferase in SW480 cells
Type: cell-based
Conditions: Homo sapiens; SW480 colon cancer cells with SP5 promoter luciferase reporter; half-log dilutions, ten micromolar top concentration; read 24-40 h after compound addition; normalized to DMSO; read-out: Wnt inhibition
Source text: Another screening assay for Wnt activity is described as follows. Reporter cell lines can be generated by stably transducing cells of cancer cell lines (e.g., colon cancer) with a lentiviral construct that include a wnt-responsive promoter driving expression of the firefly luciferase gene.
Lentiviral constructs can be made in which the SP5 promoter, a promoter having eight TCF/LEF binding sites derived from the SP5 promoter, is linked upstream of the firefly luciferase gene. The lentiviral constructs can also include a hygromycin resistance gene as a selectable marker. The SP5 promoter construct can be used to transduce SW480 cells, a colon cancer cell line having a mutated APC gene that generates a truncated APC protein, leading to de-regulated accumulation of β-catenin.
Cultured SW480 cells bearing a reporter construct can be distributed at approximately 10,000 cells per well into 96 well or 384 well plates. Compounds from a small molecule compound library can then be added to the wells in half-log dilutions using a ten micromolar top concentration. A series of control wells for each cell type receive only buffer and compound solvent. Twenty-four to forty hours after the addition of compound, reporter activity for luciferase can be assayed, for example, by addition of the BrightGlo luminescence reagent (Promega) and the Victor3 plate reader (Perkin Elmer). Readings can be normalized to DMSO only treated cells, and normalized activities can then be used in the IC50 calculations.

Structure (SMILES)	IC50
O=C(Nc1ccc2c(c1)OCO2)c1n[nH]c2ccc(-c3cncc(CN4CCCCC4)c3)cc12 [Compound 78, N-(Benzo[d][1,3]dioxol-5-yl)-5-(5-(piperidin-1-ylmethyl)pyridin-3-yl)-1H-indazole-3-carboxamide]	239 nM
O=C(Nc1ccc2c(c1)OCCO2)c1n[nH]c2ccc(-c3cncc(CN4CCCCC4)c3)cc12 [Compound 79, N-(2,3-Dihydrobenzo[b][1,4]dioxin-6-yl)-5-(5-(piperidin-1-ylmethyl)pyridin-3-yl)-1H-indazole-3-carboxamide]	123 nM
O=C(Nc1cncc(Cc2ccccc2)c1)c1n[nH]c2ccc(-c3cncc(CN4CCCCC4)c3)cc12 [Compound 80, N-(5-Benzylpyridin-3-yl)-5-(5-(piperidin-1-ylmethyl)pyridin-3-yl)-1H-indazole-3-carboxamide]	158 nM
O=C(Nc1cnccn1)c1n[nH]c2ccc(-c3cncc(CN4CCCCC4)c3)cc12 [Compound 81, 5-(5-(Piperidin-1-ylmethyl)pyridin-3-yl)-N-(pyrazin-2-yl)-1H-indazole-3-carboxamide]	77 to 142 nM
O=C(Nc1ccccc1)c1n[nH]c2ccc(-c3cncc(CN4CCCCC4)c3)cc12 [Compound 82, N-Phenyl-5-(5-(piperidin-1-ylmethyl)pyridin-3-yl)-1H-indazole-3-carboxamide]	143 to 188 nM
CN1CCN(C(=O)c2n[nH]c3ccc(-c4cncc(CN5CCCCC5)c4)cc23)CC1 [Compound 83, (4-Methylpiperazin-1-yl)(5-(5-(piperidin-1-ylmethyl)pyridin-3-yl)-1H-indazol-3-yl)methanone]	2500 to 3400 nM
C[C@@H]1CCC[C@H](C)N1Cc1cncc(-c2ccc3[nH]nc(C(=O)Nc4cccnc4)c3c2)c1 [Compound 84, 5-(5-(((2R,6S)-2,6-Dimethylpiperidin-1-yl)methyl)pyridin-3-yl)-N-(pyridin-3-yl)-1H-indazole-3-carboxamide]	822 to 898 nM
CN(C)Cc1cncc(NC(=O)c2n[nH]c3ccc(-c4cncc(CN5CCCCC5)c4)cc23)c1 [Compound 86, N-(5-((Dimethylamino)methyl)pyridin-3-yl)-5-(5-(piperidin-1-ylmethyl)pyridin-3-yl)-1H-indazole-3-carboxamide]	66 nM
CN1CCC(NC(=O)c2n[nH]c3ccc(-c4cncc(CN5CCCCC5)c4)cc23)CC1 [Compound 87, N-(1-Methylpiperidin-4-yl)-5-(5-(piperidin-1-ylmethyl)pyridin-3-yl)-1H-indazole-3-carboxamide]	2440 nM
CN(C)Cc1cncc(NC(=O)c2n[nH]c3ccc(-c4cncc(CN5CCCC5)c4)cc23)c1 [Compound 106, N-(5-((Dimethylamino)methyl)pyridin-3-yl)-5-(5-(pyrrolidin-1-ylmethyl)pyridin-3-yl)-1H-indazole-3-carboxamide]	33 nM
CN1CCN(Cc2cncc(NC(=O)c3n[nH]c4ccc(-c5cncc(CN6CCCCC6)c5)cc34)c2)CC1 [Compound 124, N-(5-((4-Methylpiperazin-1-yl)methyl)pyridin-3-yl)-5-(5-(piperidin-1-ylmethyl)pyridin-3-yl)-1H-indazole-3-carboxamide]	67 nM
O=C(Nc1ccc(N2CCCCC2)nc1)c1n[nH]c2ccc(-c3cncc(CN4CCCCC4)c3)cc12 [Compound 126, N-(6-(Piperidin-1-yl)pyridin-3-yl)-5-(5-(piperidin-1-ylmethyl)pyridin-3-yl)-1H-indazole-3-carboxamide]	22 nM
O=C(Nc1cccc(F)c1)c1n[nH]c2ccc(-c3cncc(CN4CCCCC4)c3)cc12 [Compound 162, N-(3-Fluorophenyl)-5-(5-(piperidin-1-ylmethyl)pyridin-3-yl)-1H-indazole-3-carboxamide]	426 nM
O=C(NC1CCOCC1)c1n[nH]c2ccc(-c3cncc(CN4CCCCC4)c3)cc12 [Compound 163, 5-(5-(Piperidin-1-ylmethyl)pyridin-3-yl)-N-(tetrahydro-2H-pyran-4-yl)-1H-indazole-3-carboxamide]	15400 nM
O=C(Nc1cncc(F)c1)c1n[nH]c2ccc(-c3cncc(CN4CCCCC4)c3)cc12 [Compound 168, N-(5-Fluoropyridin-3-yl)-5-(5-(piperidin-1-ylmethyl)pyridin-3-yl)-1H-indazole-3-carboxamide]	66 nM
O=C(Nc1ccc(N2CCC(O)CC2)nc1)c1n[nH]c2ccc(-c3cncc(CN4CCCCC4)c3)cc12 [Compound 169, N-(6-(4-Hydroxypiperidin-1-yl)pyridin-3-yl)-5-(5-(piperidin-1-ylmethyl)pyridin-3-yl)-1H-indazole-3-carboxamide]	49 nM

Structure (SMILES)	IC50
O=C(Nc1ccc(N2CCCC2)nc1)c1n[nH]c2ccc(-c3cncc(CN4CCC(O)CC4)c3)cc12 [Compound 170, 5-(5-((4-Hydroxypiperidin-1-yl)methyl)pyridin-3-yl)-N-(6-(pyrrolidin-1-yl)pyridin-3-yl)-1H-indazole-3-carboxamide]	43 nM
Cc1cc(NC(=O)c2n[nH]c3ccc(-c4cncc(CN5CCCCC5)c4)cc23)cnc1N1CCCC1 [Compound 172, N-(5-Methyl-6-(pyrrolidin-1-yl)pyridin-3-yl)-5-(5-(piperidin-1-ylmethyl)pyridin-3-yl)-1H-indazole-3-carboxamide]	60 nM
Cc1cc(NC(=O)c2n[nH]c3ccc(-c4cncc(CN5CCCCC5)c4)cc23)cnc1N1CCC1 [Compound 173, N-(6-(Azetidin-1-yl)-5-methylpyridin-3-yl)-5-(5-(piperidin-1-ylmethyl)pyridin-3-yl)-1H-indazole-3-carboxamide]	36 nM
O=C(Nc1ccc(N2CCC2)nc1)c1n[nH]c2ccc(-c3cncc(CN4CCCCC4)c3)cc12 [Compound 174, N-(6-(Azetidin-1-yl)pyridin-3-yl)-5-(5-(piperidin-1-ylmethyl)pyridin-3-yl)-1H-indazole-3-carboxamide]	48 nM
COc1ccc(NC(=O)c2n[nH]c3ccc(-c4cncc(CN5CCCCC5)c4)cc23)cn1 [Compound 175, N-(6-Methoxypyridin-3-yl)-5-(5-(piperidin-1-ylmethyl)pyridin-3-yl)-1H-indazole-3-carboxamide]	25 nM
Nc1ncc(NC(=O)c2n[nH]c3ccc(-c4cncc(CN5CCCCC5)c4)cc23)cn1 [Compound 176, N-(2-Aminopyrimidin-5-yl)-5-(5-(piperidin-1-ylmethyl)pyridin-3-yl)-1H-indazole-3-carboxamide]	30 nM
O=C(Nc1ccc(N2CCNCC2)nc1)c1n[nH]c2ccc(-c3cncc(CN4CCCCC4)c3)cc12 [Compound 177, N-(6-(Piperazin-1-yl)pyridin-3-yl)-5-(5-(piperidin-1-ylmethyl)pyridin-3-yl)-1H-indazole-3-carboxamide]	183 nM
O=C(Nc1ccc(O)nc1)c1n[nH]c2ccc(-c3cncc(CN4CCCCC4)c3)cc12 [Compound 178, N-(6-Hydroxypyridin-3-yl)-5-(5-(piperidin-1-ylmethyl)pyridin-3-yl)-1H-indazole-3-carboxamide]	297 nM
O=C(Nc1ccc(C(=O)N2CCCC2)nc1)c1n[nH]c2ccc(-c3cncc(CN4CCCCC4)c3)cc12 [Compound 179, 5-(5-(Piperidin-1-ylmethyl)pyridin-3-yl)-N-(6-(pyrrolidine-1-carbonyl)pyridin-3-yl)-1H-indazole-3-carboxamide]	30 nM
NC(=O)c1ccc(NC(=O)c2n[nH]c3ccc(-c4cncc(CN5CCCCC5)c4)cc23)cn1 [Compound 180, N-(6-carbamoylpyridin-3-yl)-5-(5-(piperidin-1-ylmethyl)pyridin-3-yl)-1H-indazole-3-carboxamide]	13 nM
O=C(NC1CCCC1)c1ccc(NC(=O)c2n[nH]c3ccc(-c4cccnc4)cc23)cn1 [Compound 181, N-(6-(Cyclopentylcarbamoyl)pyridin-3-yl)-5-(pyridin-3-yl)-1H-indazole-3-carboxamide]	38 nM
Nc1cncc(-c2ccc3[nH]nc(C(=O)Nc4ccc(N5CCCCC5)nc4)c3c2)c1 [Compound 182, 5-(5-Aminopyridin-3-yl)-N-(6-(piperidin-1-yl)pyridin-3-yl)-1H-indazole-3-carboxamide]	35 nM
O=C(Nc1ccc(N2CCCC2)nc1)c1n[nH]c2ccc(-c3cncc(CN4CCC(F)(F)C4)c3)cc12 [Compound 183, 5-(5-((3,3-Difluoropyrrolidin-1-yl)methyl)pyridin-3-yl)-N-(6-(pyrrolidin-1-yl)pyridin-3-yl)-1H-indazole-3-carboxamide]	49 nM
O=C(NC1CCCC1)c1ccc(NC(=O)c2n[nH]c3ccc(-c4cncc(CN5CCCCC5)c4)cc23)cn1 [Compound 184, N-(6-(Cyclopentylcarbamoyl)pyridin-3-yl)-5-(5-(piperidin-1-ylmethyl)pyridin-3-yl)-1H-indazole-3-carboxamide]	40 nM
CS(=O)(=O)c1ccc(NC(=O)c2n[nH]c3ccc(-c4cncc(CN5CCCCC5)c4)cc23)cn1 [Compound 185, N-(6-(Methylsulfonyl)pyridin-3-yl)-5-(5-(piperidin-1-ylmethyl)pyridin-3-yl)-1H-indazole-3-carboxamide]	27 nM
CN1CCN(c2cncc(-c3ccc4[nH]nc(C(=O)Nc5ccc(N6CCCC6)nc5)c4c3)c2)CC1 [Compound 186, 5-(5-(4-Methylpiperazin-1-yl)pyridin-3-yl)-N-(6-(pyrrolidin-1-yl)pyridin-3-yl)-1H-indazole-3-carboxamide]	460 nM
